Test results from paper PMC9763021, “Comprehensive Assessment of Biomolecular Interactions of Morpholine-Based Mixed Ligand Cu(II) and Zn(II) Complexes of 2,2′-Bipyridine as Potential Anticancer and SARS-CoV-2 Agents: A Synergistic Experimental and Structure-Based Virtual Screening” (Bioinorganic Chemistry and Applications, 2022).

How the values were obtained:
[1] = molecular target: BSA (Bos taurus, UniProt P02769); experiment: BSA fluorescence quenching (emission titration); format: binding, bovine; conditions: values in brackets; for KSV (BSA), SV method I: 350 nm; for P (BSA), ratio of fluorescence quantum efficiency: F/F0 vs 1/[BSA]; for Kq (BSA), SV method I: Kq=KSV/τ0; for ∆Gb° (BSA), SV method II: –RT lnKass
Description: The experiment was performed in the 200 to 800 nm region. This is supporting evidence for the complexes' manner of deoxyribonucleic acid binding. When DNA (200 μM) was present or absent, we carefully monitored the intensity variations between 610 nm and 510 nm during the initial emission and excitation of EB [6, 28, 37]. Similarly, emission titrations for BSA interaction with different concentrations between 2.5 μM and 25 μM for all substances were conducted in a Tris-HCl buffer solution (pH: 7.4) between the regions of 300 nm and 400 nm.
K SV is denoted as Stern–Volmer binding constant; Kass is represented as association binding constant; Kapp is represented as apparent binding constant, Kapp=KEB[EB]/[compound]=500/[compound], KEB = 10^7 M^−1 at the concentration of 50 μM EB; Gibb's free energy change ΔGb°=–RT lnKass; Kq is represented as bimolecular quenching rate constant/Stern–Volmer dynamic quenching rate constant (Kq=KSV/τ0), average life time of the biomolecular quenching in the absence of a quencher (τ0) = 10^−8 S; Gibb's free energy change ΔGb°=–RT lnKass (where R = […], T = 298 K); KLB is represented as Lineweaver–Burk (LWB) binding constant; KSA is represented as Scatchard association binding constant; Kapp is denoted as apparent binding constant; n is the number of binding sites; P is a ratio of fluorescence quantum efficiency of DNA bound and free complex (P=ɸb/ɸf), which is obtained as intercept from plot F/F0 vs. 1/[DNA], Error limit is ± 2.5% (P < 0.025).(12) Fcorr=Fobs×e^Aex×dex+Aem×dem/2=Fobs×e^Aex+Aem/2, where Fcorr and Fobs are represented as the IFE-corrected fluorescence and observed (uncorrected) emission intensities, respectively. dex and dem are denoted as the cuvette path lengths in the excitation and emission directions, respectively. Aex and Aem are represented as the change in absorbance at the excitation and fluorescence wavelengths, respectively.(13) F0 /F=1+KSVQ=1+Kq τ0, where [Q] is represented as the sample concentration, the emission intensities F0 and F of DNA/BSA in the absence and presence of the quencher (sample), respectively.(14) F0 /F−1=F0−F/F=KSVQlogF0−F/F=logKass+n logQ, (15) KEBEB=Kappcompound, (16) 1/F0−F=1/F0 KLBQ+1/F0 , (17) γ/CF =KSCn−γ, where γ = [(F0 − F)/F0], and CF is denoted as the concentration of sample alone.
Additionally, the intensity of bovine serum albumin was monitored at 350 nm (λex = 278 nm) during fluorescence titration. When increasing the sample concentrations, the BSA intensity diminishes dramatically owing to static quenching in the ground state. It is noted that the fluorophores of BSA are not clearly exposed to a shift in polarity. […] Additionally, the Stern–Volmer equations (12)-(13) were employed to analyze the data (Figure S27 and Table 4). […] They are also much exceeded compared to the collision quenching constant value (2.0 × 10^10 mol^−1·s^−1). Therefore, it is assumed that the static quenching process was brought on by adduct construction between the compounds and bovine serum albumin rather than a dynamic collision. However, fluorescence spectroscopy is generally plagued by the inner filter effect (IFE), which disturbs the spectral analysis in particular. The energizing ray is attenuated due to the highly concentrated solution sample. As a result, strong fluorescence is only seen on surfaces facing the excitation beam. The fluorescence intensity is reduced as a result of an inner filter effect generated by some chemicals' absorption of the excitation or emission wavelength in the UV province. The observed values of the absorption wavelength of ligand (HL) and mixed ligand complexes (1a-2a) in the range of 335–337 nm, the bovine serum albumin excitation wavelength of 278 nm, and emission wavelength of 350 nm were used to assess the effect of IFE in this approach. Equation (12) is employed to solve IFE in this instance as well (Table 4). […]

[2] = DPPH radical scavenging assay; format: biochemical; conditions: for % Inhibition DPPH: 517 nm
Description: (§1) All samples were evaluated for their scavenging ability with the help of UV-visible spectrophotometer at different concentrations of 40, 80, 120, 160, 200, and 240 μM [6, 28]. While performing the antioxidant properties for the DPPH, hydroxyl, superoxide, and nitric oxide radical scavenging, the absorbance at 517, 230, 590, and 546 nm, respectively, was closely observed. In addition, the observed IC50 values of all samples were compared with ascorbic acid.
The colour of an aqueous or methanol solution changes from deep purple to pale yellow when DPPH, a stable chromogen free radical, combines with an antioxidant molecule, which means that DPPH quickly absorbs the hydrogen or electrons from the donor groups. In this case, for the baseline correction, a blank DPPH solution in the absence of a test compound was employed, and 517 nm (ε = 8320 M^−1·cm^−1) was attained to have a significant absorption maximum. […] The DPPH radicals are reduced by an antioxidant compound (AH), in which the reduction of electronic absorbance for each compound was vigilantly noted at 517 nm. The capacity to block radicals improves as the sample concentration increases. The assessed percentage of maximum inhibition for all substances was found at 240 μM in the subsequent order: (ascorbic acid) (85.65) > (1a) 68.64 > (2a) 59.55 > (HL) 52.45. […] Moreover, the % of scavenging or maximum inhibition for all substances is estimated with the aid of equation (44) (Table S14).(43) Scavanging%=A0−AS/A0×100

[3] = Nitric oxide scavenging assay; format: biochemical; conditions: for % Inhibition nitric oxide: 546 nm
Description: as §1
The diffusible nitric oxide free radical is a crucial chemical mediator, which assists in overcoming diverse chronological human diseases. The NO free radical scavenging potential for all test samples was also carried out at 546 nm. It monitored the alterations in electronic absorption intensity of the nitric oxide radical inhibition outcome concerning the sample concentrations. When the test sample concentration rises, the nitric oxide free inhibition effectiveness also increases. The measured % of nitric oxide radical scavenging capability for all samples at 240 μM was obtained in the subsequent order (ascorbic acid) 72.73 > (1a) 65.47 > (2a) 58.43 > (HL) 51.62.

Compound | Kass (BSA), SV method II [1] [M⁻¹] | n (BSA), SV method II [1] | KSV (BSA), SV method I [1] [M⁻¹] | P (BSA), ratio of fluorescence quantum efficiency [1] | Kq (BSA), SV method I [1] [M⁻¹ s⁻¹] | ∆Gb° (BSA), SV method II [1] [kJM^−1] | IC50 [2] [µM] | % Inhibition DPPH ([2]; 40 µM) [%] | % Inhibition DPPH ([2]; 80 µM) [%] | % Inhibition DPPH ([2]; 120 µM) [%] | % Inhibition DPPH ([2]; 160 µM) [%] | % Inhibition DPPH ([2]; 200 µM) [%] | % Inhibition DPPH ([2]; 240 µM) [%] | IC50 [3] [µM] | % Inhibition nitric oxide ([3]; 40 µM) [%] | % Inhibition nitric oxide ([3]; 80 µM) [%] | % Inhibition nitric oxide ([3]; 120 µM) [%] | % Inhibition nitric oxide ([3]; 160 µM) [%] | % Inhibition nitric oxide ([3]; 200 µM) [%] | % Inhibition nitric oxide ([3]; 240 µM) [%]
[Cu+2].[O-]c1ccccc1N=Cc1ccc(N2CCOCC2)cc1.[O-]c1ccccc1N=Cc1ccc(N2CCOCC2)cc1.c1ccc(-c2ccccn2)nc1 [(1a), [Cu(L)2(bpy)]] | 87340 | 1.059 | 86910 | 0.252 | 8.691e+12 | −28.2 | 160 | 17.53 | 30.62 | 35.74 | 51.72 | 57.95 | 68.64 | 200 | 17.07 | 24.95 | 35.06 | 42.14 | 51.35 | 65.47
Oc1ccccc1N=Cc1ccc(N2CCOCC2)cc1 [(HL), 2-(4-morpholinobenzylideneamino)phenol] | 10620 | 0.926 | 26390 | 0.464 | 2.639e+12 | −23.0 |  | 09.45 | 15.21 | 26.36 | 34.56 | 39.41 | 52.45 |  | 11.42 | 18.26 | 24.28 | 33.21 | 40.53 | 51.62
[O-]c1ccccc1N=Cc1ccc(N2CCOCC2)cc1.[O-]c1ccccc1N=Cc1ccc(N2CCOCC2)cc1.[Zn+2].c1ccc(-c2ccccn2)nc1 [(2a), [Zn(L)2(bpy)]] | 52910 | 1.041 | 48050 | 0.348 | 4.805e+12 | −26.9 |  | 12.75 | 24.73 | 30.02 | 39.68 | 48.79 | 59.55 |  | 14.37 | 21.59 | 28.87 | 37.69 | 44.73 | 58.43
